Source: patent US4728736A, “Carbocyclic analogs of purine ribofuranosides” (priority 1984, dated 1988)
In brackets after ≈: the same amount, converted by molar mass.

Experiments:
[1] = test system: herpes simplex virus, type 1 (strain HF); assay: Antiviral activity (virus rating); […]; type: cell-based; details: H.Ep. 2 cells; for EC50: Human alphaherpesvirus 1, HEp-2, strain HF, read-out: MIC50, Herpes Simplex Type 1; for Virus Rating (VR), Herpes Simplex Type 1: VR 0.5-0.9 marginal to moderate, VR >= 1 definite activity
[2] = test system: herpes simplex virus, type 1 (strain 377); assay: Antiviral activity (virus rating); […]; type: cell-based; details: strain 377, Vero cells; for Virus Rating (VR), Herpes Simplex Type 1: VR 0.5-0.9 marginal to moderate, VR >= 1 definite activity; for EC50: Human alphaherpesvirus 1, 50% inhibition of virus-induced cytopathogenic effects, read-out: MIC50, Herpes Simplex Type 1
[3] = test system: vaccinia virus (Lederle Chorioallantoic strain); assay: microbe, parasite or virus in culture; type: cell-based; details: for Virus Rating (VR), Vaccinia Virus: Lederle Chorioallantoic strain, H.Ep. 2 cells, VR 0.5-0.9 marginal to moderate, VR >= 1 definite activity; for EC50: Orthopoxvirus vaccinia, HEp-2, read-out: MIC50, Vaccinia Virus
[4] = test system: herpes simplex virus, type 1, and vaccinia virus; type: cell-based, type 1; vaccinia virus; details: cell culture
[5] = 50% inhibition of virus-induced cytopathogenic effects

| SMILES | EC50 [1, 5] [µg/mL] | Virus Rating (VR), Herpes Simplex Type 1 ([1]; strain HF) | Virus Rating (VR), Herpes Simplex Type 1 [2] | Virus Rating (VR), Vaccinia Virus [3] | EC50 [2] [µg/mL] | MIC50, Herpes Simplex Type 1 ([1]; strain HF, 50% inhibition of virus-induced cytopathogenic effects) [µg/mL] | antiviral activity (in words) [4] | inhibiting replication of vaccinia virus (in words) [3] | EC50 [3] [µg/mL] |
| --- | --- | --- | --- | --- | --- | --- | --- | --- | --- |
| Nc1nc(N)c2nnn([C@@H]3C[C@H](CO)[C@@H](O)[C@H]3O)c2n1 (relative stereo) [Example 6, (1α,2α,3β,5β)-3-(5,7-Diamino-3H-1,2,3-triazolo[4,5-d]pyrimidin-3-yl)-5-(hydroxymethyl)-1,2-cyclopentanediol] | 100 (≈ 356 µM) | 1.4 | 0.6 |  |  |  |  |  |  |
| Nc1nc(Cl)c2nnn([C@@H]3C[C@H](CO)[C@@H](O)[C@H]3O)c2n1 (relative stereo) [Formula III, X = Cl, carbocyclic analog of 2-amino-6-chloro-8-azapurine ribofuranoside] | 81 | 0.9 |  | 0.6 |  |  |  |  |  |
| CNc1nc(N)nc2c1ncn2[C@@H]1C[C@H](CO)[C@@H](O)[C@H]1O (relative stereo) [Example 3, (1α,2α,3β,5β)-3-[2-Amino-6-(methylamino)-9H-purin-9-yl]-5-(hydroxymethyl)-1,2-cyclopentanediol] | 320 (≈ 1090 µM) | 1.3 |  |  |  |  |  |  |  |
| Nc1ncnc2c1ncn2[C@@H]1O[C@H](CO)[C@@H](O)[C@@H]1O [Ara-A, reference compound] | 2.5 to 10 (≈ 9.35 to 37.4 µM) | 2.0-2.2 |  |  |  |  |  |  |  |
| Nc1nc2c(nnn2[C@@H]2C[C@H](CO)[C@@H](O)[C@H]2O)c(=O)[nH]1 (relative stereo) [Formula IV, Y = O, carbocyclic analog of 8-azaguanosine] |  |  | 2.2 |  | 58 |  |  |  |  |
| Nc1nc(N)c2ncn([C@@H]3C[C@H](CO)[C@@H](O)[C@H]3O)c2n1 (relative stereo) [Example 2, (1α,2α,3β,5β)-3-(2,6-Diamino-9H-purin-9-yl)-5-(hydroxymethyl)-1,2-cyclopentanediol] | 0.32 (≈ 1.14 µM) | 4.6 | 2.2 | 3.8 | 197 (≈ 703 µM) | 0.3 (≈ 1.07 µM) | very high activity | highly active | 2.3 (≈ 8.21 µM) |
| Nc1nc(Cl)c2ncn([C@@H]3C[C@H](CO)[C@@H](O)[C@H]3O)c2n1 (relative stereo) [Example 1, (1α,2α,3β,5β)-3-(2-Amino-6-chloro-9HH-purin-9-yl)-5-(hydroxymethyl)-1,2-cyclopentanediol] | 10 (≈ 33.4 µM) | 1.7 |  | 1.2 |  |  |  |  | 20 (≈ 66.7 µM) |
